Format in all cases: cell-based
The test system of assay [1] is cIAP1 degradation and p100 cleavage in JLat 10.6 cells. Description: cIAP1 degradation and p100 cleavage (western blot) with GFP expression. The note with it: 24 hours, different concentrations (FIG. 4). How it is done:
JLat 10.6 cells were treated with different concentrations of compound 18a for 24 hours. GFP expression indicating latency reversal was measured by flow cytometry. cIAP1 degradation and p100 cleavage were assessed by western blot using the antibodies AF8181 (R&D Systems) and #4882 (Cell Signaling Technology), respectively.

Assay [2] has as its system latently infected cell line Jurkat 2D10. Description: Combination with other LRA, Bliss Independence model, GFP expression. The note with it: Jurkat 2D10, 48 hours, with JQ1, I-BET 151, Bryostatin, Ingenol-3-angelate. The protocol:
Compound 18a was also tested in combination with other LRA reagents for synergistic activation of the latently infected cell line Jurkat 2D10. Jurkat 2D10 cells were treated with combinations of compound 18a and BET inhibitors (JQ1, I-BET 151) or PKC agonists (Bryostatin, Ingenol-3-angelate) for 48 hours. Reversal of HW latency was evaluated by analyzing GFP expression using flow cytometry. Synergy was assessed with the Bliss Independence model where the observed effect of a combination of compounds f12 is compared to the expected effect E(f12) that is calculated based on the observed effects of the individual compounds f1 and f2 using the formula E(f12)=f1+J2−(f1*f2). The difference between the observed effect of the combined compounds (f12) and the expected combined effect of the two compounds E(f12) is given as the excess over Bliss score (EOB). An EOB value greater than 0 indicates synergy between the compounds.

The next assay concerns resting CD4+ T cells. Description: T cell activation (CD69 and CD25 expression, flow cytometry). The note with it: resting CD4+ T cells of healthy human donors (FIG. 2). The protocol: Compound 18a was also tested for its impact on T cell activation and cytokine release. Peripheral blood mononuclear cells (PBMC) were isolated by Ficoll density gradient centrifugation (Histopaque, Sigma Aldrich) from buffy coats of three healthy human donors (San Diego Blood Bank). Resting CD4^+ T cells were subsequently isolated by negative selection using magnetic beads (Miltenyi Biotec). Cells were treated with compound 18a, or 50 ng/ml Phorbol myristate acetate (PMA) and 1 μM lonomycin, or Dynabeads Human T-Activator CD3/CD28 (ThermoFisher Scientific) at a bead-to-cell ratio of 1:1, or left untreated. Expression of the early and late activation markers CD69 and CD25 on CD4+ T cells was assessed by flow cytometry using a Phycoerythrin-labeled anti-CD69 antibody (BioLegend; Cat #310906) and an Allophycocyanin-labeled anti-CD25 antibody (BioLegend; Cat #302610). Cytokine expression levels in cultures of PBMC or resting CD4+ T cells were analyzed using the LEGENDplex Human Inflammation Panel 13-plex (BioLegend).

As to `CN[C@@H](C)C(=O)N[C@H]1CCS[C@H]2CC(C)(C)[C@@H](C(=O)N[C@H]3c4ccccc4C[C@H]3OCC#CC#CCO[C@@H]3Cc4ccccc4[C@@H]3NC(=O)[C@H]3N4C(=O)[C@@H](NC(=O)[C@H](C)NC)CCS[C@H]4CC3(C)C)N2C1=O` [Compound 18a, (2S)-1-{[(4S,7S,9aS)-74{(1S,2R)-2-[(6-{[(1S,2R)-1-({[(4S,7S,9aS)-8,8-Dimethyl-4-{[(2S)-2-(methylammonio)propanoyl]amino}-5-oxooctahydropyrrolo[2,1-b][1,3]thiazepin-7-yl]carbonyl}amino)-2,3-dihydro-1H-inden-2-yl]oxy}hexa-2,4-diyn-1-yl)oxy]-2,3-dihydro-1H-inden-1-yl}carbamoyl)-8,8-dimethyl-5-oxooctahydropyrrolo[2,1-b][1,3]thiazepinyl]amino}-N-methyl-1-oxopropan-2-ammonium dichloride], the “cIAP1 degradation and p100 cleavage” value in assay [1] is recorded as “correlated with HW latency reversal”. For the same compound, in assay [2], the “synergy with LRA compounds in reversal of HIV latency” value was “synergizes with the tested LRA compounds to reverse HW latency”. Besides, the “activation of resting CD4+ T cells (CD69, CD25)” value in the assay on resting CD4+ T cells was “did not induce activation of resting CD4+ T cells”.

The values above are taken from US12678509B2, “Inhibitor of apoptosis (IAP) protein antagonists” (Sanford Burnham Prebys Medical Discovery Institute, priority 2019, dated 2026).
